Assay results taken from patent US9586959B2, “Substituted tricyclic heterocycles as histamine 4 receptor inhibitors” (C&C RESEARCH LABORATORIES, priority 2011, dated 2017).
In brackets after ≈: the same amount, converted by molar mass.

Assays:
[1] = Metabolic stability in human microsome; settings: human microsome 1 mg/mL, 5 μM compound, 1 mM NADPH
[2] = Solubility in artificial gastrointestinal tract solution; type: physicochemical; settings: thermodynamic from solid; for solubility at 1 h: fassgf or other biorelevant, first solution pH 1.2, 2 mg/mL sample, 37° C. 1 hour; for solubility at 2 h: fassif, second solution pH 6.5, 2 mg/mL sample, 37° C. 2 hours
Description: 2.0 g of sodium chloride was added in 7.0 mL of 37% of hydrochloric acid and water to make the total volume of 1 L. The pH was adjusted to exactly 1.2 with 1N sodium hydroxide or 1N hydrochloric acid. A small amount (20 mL) of this solution was taken and added in 25 μL of triton X-100 to make the total volume of 25 mL.
0.348 g sodium hydroxide, 3.438 g NaH2PO4, 6.186 g sodium chloride and water were added to make the total volume of 1 L. The pH was adjusted to exactly 6.5 with 1N sodium hydroxide or 1N hydrochloric acid. A small amount (20 mL) of this solution was taken and 41.25 mg of sodium taurocholate hydrate and 25 μL of 750 mM lecithin dissolved in ethanol was added to make the total volume of 25 mL.
The heated test sample solutions were filtered to remove undissolved compounds therein. Finally, 100 μL of the completely compound-dissolved solution was sampled and 100 μL of CH3CN was added thereto to make the test sample solution. For each analysis of the test sample solution, the solubility was measured by using liquid chromatography.

[3] = target: human histamine 4 receptor (hH4R) (Homo sapiens (Human), UniProt Q9H3N8); assay: Binding affinity of human histamine 4 receptor (hH4R), [3H] labeled histamine displacement; settings: hH4R-overexpressed cell membrane, [3H] histamine
Sequence of human histamine 4 receptor (hH4R) (Q9H3N8 whole entry): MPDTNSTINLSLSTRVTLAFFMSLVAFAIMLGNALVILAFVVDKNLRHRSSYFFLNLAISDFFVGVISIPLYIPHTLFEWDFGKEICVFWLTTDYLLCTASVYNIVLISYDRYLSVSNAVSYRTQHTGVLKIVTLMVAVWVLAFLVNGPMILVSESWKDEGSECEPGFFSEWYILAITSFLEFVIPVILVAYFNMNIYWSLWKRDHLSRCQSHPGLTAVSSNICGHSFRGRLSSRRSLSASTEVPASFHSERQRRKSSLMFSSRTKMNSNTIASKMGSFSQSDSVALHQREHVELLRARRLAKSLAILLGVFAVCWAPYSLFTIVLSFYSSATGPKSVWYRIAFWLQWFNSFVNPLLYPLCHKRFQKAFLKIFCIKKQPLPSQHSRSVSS
Description: 20 μL of the prepared compound solution was transferred to each well of a 96-well plate, and then 20 μL of 100 μM histamine diluted with analysis buffer solution and 1% DMSO were transferred to each well to calculate non-specific binding and total binding degree. 25 μg of human histamine 4 receptor-overexpressed cell membrane (PerkinElmer) was diluted into 160 μL of analysis buffer solution and that was transferred to each well. [^3H] labeled histamine (PerkinElmer) was diluted into 1 μM concentration, 20 μL was allocated in each well, and then it was kept in a 27° C. incubator for 30 minutes. After the reaction, 200 μL of the mixture was transferred to a glass fiber plate in which 0.5% polyethylene amine was presoaked, and then non-binding [^3H] labeled histamine was removed in vacuum. After 4 times washing with 200 μL of washing buffer solution (50 mM tris-HCl, pH 7.4), the plate was dried in a 37° C. oven for 18 hours. 100 μL of betascint cocktail solution was added to each well, and after 1 hour CPM (count per minute) value of [^3H] labeled histamine was measured by using Wallac beta-counter TriLux.

[4] = Metabolic stability in mouse microsome; settings: mouse microsome 1 mg/mL, 5 μM compound, 1 mM NADPH
[5] = target: human histamine 3 receptor (hH3R) (Homo sapiens (Human), UniProt Q9Y5N1); assay: Binding affinity of human histamine 3 receptor (hH3R), [3H] labeled N-α-methylhistamine displacement; settings: hH3R-overexpressed cell membrane, [3H] N-α-methylhistamine
Sequence of human histamine 3 receptor (hH3R) (Q9Y5N1 whole entry): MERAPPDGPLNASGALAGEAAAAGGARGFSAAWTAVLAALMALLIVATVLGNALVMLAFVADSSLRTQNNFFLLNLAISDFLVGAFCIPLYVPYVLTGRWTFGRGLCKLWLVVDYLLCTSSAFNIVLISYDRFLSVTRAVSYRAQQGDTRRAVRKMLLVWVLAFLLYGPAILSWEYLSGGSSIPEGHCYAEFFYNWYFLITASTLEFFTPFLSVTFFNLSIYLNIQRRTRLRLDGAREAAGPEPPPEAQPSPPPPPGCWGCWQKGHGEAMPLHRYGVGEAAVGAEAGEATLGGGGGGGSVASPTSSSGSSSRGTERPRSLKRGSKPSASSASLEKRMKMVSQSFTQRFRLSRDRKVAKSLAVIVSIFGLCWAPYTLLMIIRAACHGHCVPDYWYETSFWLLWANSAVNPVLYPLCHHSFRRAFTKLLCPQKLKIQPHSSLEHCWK
Method in brief: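 Membranes from cells overexpressing hH3R (15 μg) were incubated with compound and [3H]N-α-methylhistamine (20 μM stock) in 50 mM Tris-HCl pH 7.4, 5 mM MgCl2 for 30 min at 27 °C. Bound radioligand was counted by scintillation after filtration; 200 μM (R)(−)-α-methylhistamine stock defined non-specific binding; IC50 derived.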

[6] = Mouse pharmacokinetics (oral); type: in vivo; settings: plasma, 50 mg/kg, ICR mouse, 5 mg/mL solution at 10 mL/kg; for AUC(0-inf): read-out: Mouse pharmacokinetics AUCinf; for half-life: read-out: Mouse pharmacokinetics t1/2 (converted)
Description: The weight of each ICR mouse and SD rat was properly 20˜30 g and 200˜300 g, and dosage of the compound of the present invention was 10 mL/kg for mice and 5 mL/kg for rats, and administered orally using Zonde. Blood collection was performed at 0.25, 0.5, 1, 2, 4, 6, 8 and 24 hours by orbital venous blood collection using a capillary tube coated with an anticoagulant, and then plasma was isolated using a centrifuge and kept in a freezer.
Plasma collected from animals and standard concentration material were pretreated using solid-phase extraction, and concentration of the compound of the invention was determined using a liquid chromatography mass spectrometer (Agilent HPLC, API-3000).
According to the resulting concentration value, the pharmacokinetics parameter was found using WinNonlin (Version 6.2) and half-life (t1/2), maximum blood concentration (Cmax) and infinite area under the curve (AUCinf) are shown in Tables 6 and 7 below.

[7] = target: human serotonin 3 receptor (human 5-HT3 receptor) (Homo sapiens (Human), UniProt P46098); assay: Binding affinity of human serotonin 3 receptor (performed at Cerep)
Sequence of human serotonin 3 receptor (human 5-HT3 receptor) (P46098 24-478): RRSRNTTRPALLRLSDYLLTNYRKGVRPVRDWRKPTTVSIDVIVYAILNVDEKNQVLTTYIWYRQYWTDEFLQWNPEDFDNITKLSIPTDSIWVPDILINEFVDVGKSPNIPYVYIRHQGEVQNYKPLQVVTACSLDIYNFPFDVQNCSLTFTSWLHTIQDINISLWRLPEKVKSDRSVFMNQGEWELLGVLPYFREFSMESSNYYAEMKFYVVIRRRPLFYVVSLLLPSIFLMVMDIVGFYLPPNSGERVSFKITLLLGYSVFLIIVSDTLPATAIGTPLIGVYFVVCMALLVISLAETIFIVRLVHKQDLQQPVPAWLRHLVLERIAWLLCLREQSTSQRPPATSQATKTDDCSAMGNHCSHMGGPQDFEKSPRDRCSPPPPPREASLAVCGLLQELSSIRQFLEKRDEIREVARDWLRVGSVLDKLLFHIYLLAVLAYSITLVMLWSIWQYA
Description: The binding assays of the human serotonin 3 receptor for present invention were performed at Cerep (Poitiers, France), and the results of analysis are shown in Table 3.

[8] = artificial gastrointestinal tract solution

SMILES	Metabolic stability (CLh. int), Human [1] [µL/min/mg]	solubility at 1 h [2, 8] [µg/mL]	solubility at 2 h [2, 8] [µg/mL]	IC50 [3] [nM]	Metabolic stability (CLh. int), Mouse [4] [µL/min/mg]	IC50 [5] [nM]	Cmax [6] [ng/mL]	AUC(0-inf) [6] [ng·h/mL]	half-life [6] [h]	inhibition at 10 µM ([7]; read-out: % inhibition degree at 10 μM, human serotonin 3 receptor (h5-HT3R)) [%]	IC50 ([7]; read-out: Binding affinity (IC50) of human serotonin 3 receptor (h5-HT3R)) [nM]	IC50 ([3]; hydrochloride) [nM]	solubility at 1 h [2] [µg/mL]	solubility at 2 h [2] [µg/mL]
C[C@H]1CN(c2nc3ncc(Cl)cc3n3cnnc23)CCN1 [Compound 19, (S)-8-chloro-4-(3-methylpiperazin-1-yl)pyrido[2,3-e][1,2,4]triazolo[4,3-a]pyrazine]	960	1980 (≈ 6.5 mM)	1700 (≈ 5.58 mM)	760	26160	> 100000	–	–	–	–	–	–	–	–
CNC1CN(c2nc3ncc(Cl)cc3n3nnnc23)C1 [Compound 93, 1-(8-Chloropyrido[2,3-e]tetrazolo[1,5-a]pyrazin-4-yl)-N-methylazetidin-3-amine]	4480	1970 (≈ 6.78 mM)	1310 (≈ 4.49 mM)	65	9470	> 100000	10800	121000	15.6	18	> 10000	–	–	–
CNC1CN(c2nc3ncc(Br)cc3c3ccnn23)C1 [Compound 110, 1-(9-bromopyrazolo[1,5-c]pyrido[3,2-e]pyrimidin-5-yl)-N-methylazetidin-3-amine]	3880	1870 (≈ 5.62 mM)	708 (≈ 2.13 mM)	160	1780	> 100000	–	–	–	–	–	–	–	–
Brc1cnc2nc(N3CCNCC3)c3nncn3c2c1 [Compound 16, 8-Bromo-4-(piperazin-1-yl)pyrido[2,3-e][1,2,4]triazolo[4,3-a]pyrazine]	4080	1930 (≈ 5.78 mM)	758 (≈ 2.27 mM)	65	10420	> 100000	8270	15900	1.18	–	–	–	–	–
CNC1CN(c2nc3ncc(Br)cc3n3nnnc23)C1.Cl [Compound 69, 1-(8-Bromopyrido[2,3-e]tetrazolo[1,5-a]pyrazin-4-yl)-N-methylazetidin-3-amine hydrochloride]	5690	1810	1920	35	14040	> 100000	–	–	–	–	–	–	–	–
CNC1CN(c2nc3ncc(Br)cc3n3cnnc23)C1.Cl [Compound 68, 1-(8-Bromopyrido[2,3-e][1,2,4]triazolo[4,3-a]pyrazin-4-yl)-N-methylazetidin-3-amine hydrochloride]	300	1820	1760	–	3930	> 100000	–	–	–	–	–	130	–	–
CNC1CN(c2nc3ncc(Cl)cc3n3ccnc23)C1 [Compound 88, 1-(8-Chloroimidazo[1,2-a]pyrido[2,3-e]pyrazin-4-yl)-N-methylazetidin-3-amine]	2870	1820 (≈ 6.31 mM)	1580 (≈ 5.46 mM)	260	11770	> 100000	–	–	–	–	–	–	–	–
C[C@H]1CN(c2nc3ncc(Cl)cc3n3cnnc23)CCN1C [Compound 20, (S)-8-chloro-4-(3,4-dimethylpiperazin-1-yl)pyrido[2,3-e][1,2,4]triazolo[4,3-a]pyrazine]	1620	2070 (≈ 6.51 mM)	1640 (≈ 5.18 mM)	380	7570	> 100000	–	–	–	–	–	–	–	–
CNC1CN(C2=Nc3ncc(Br)cc3N3CCN=C23)C1 [Compound 107, 1-(8-bromo-1,2-dihydroimidazo[1,2-a]pyrido[2,3-e]pyrazin-4-yl)-N-methylazetidin-3-amine]	5160	1420 (≈ 4.22 mM)	1570 (≈ 4.68 mM)	620	8150	> 100000	–	–	–	–	–	–	–	–
CNC1CN(c2nc3ncc([N+](=O)[O-])cc3n3cnnc23)C1 [Compound 111, N-methyl-1-(8-nitropyrido[2,3-e][1,2,4]triazolo[4,3-a]pyrazin-4-yl)azetidin-3-amine]	4200	1900 (≈ 6.33 mM)	1070 (≈ 3.55 mM)	240	5230	> 100000	–	–	–	–	–	–	–	–
CNC1CN(c2nc3ncc(C)cc3n3cnnc23)C1 [Compound 50, N-Methyl-1-(8-methylpyrido[2,3-e][1,2,4]triazolo[4,3-a]pyrazin-4-yl)azetidin-3-amine]	1900	1990 (≈ 7.38 mM)	1870 (≈ 6.95 mM)	190	9080	> 100000	–	–	–	–	–	–	–	–
Cc1nc2c3cc(Cl)cnc3nc(N3CCNCC3)n2n1 [Compound 32, 9-Chloro-2-methyl-5-(piperazin-1-yl)pyrido[3,2-e][1,2,4]triazolo[1,5-c]pyrimidine]	1030	1350 (≈ 4.43 mM)	1150 (≈ 3.79 mM)	73	8390	> 100000	10100	74900	5.39	–	–	–	–	–
CNC1CN(c2nc3ncc(C(F)(F)F)cc3n3cnnc23)C1 [Compound 52, N-Methyl-1-(8-(trifluoromethyl)pyrido[2,3-e][1,2,4]triazolo[4,3-a]pyrazin-4-yl)azetidin-3-amine]	1320	–	–	220	2050	> 100000	–	–	–	–	–	–	1670 (≈ 5.18 mM)	1460 (≈ 4.53 mM)
